Experimental data as given in patent US6903132B2, “Non-peptide GnRH agents, pharmaceutical compositions and methods for their use” (Agouron Pharmaceuticals, Inc., priority 2002, dated 2005).

Columns and labels:
Experiment in all cases: Radioligand binding assay: inhibition of binding of 125I-GnRH-A to GnRH receptors (membranes)
human GnRH receptors = target: T1, human GnRH receptors (Homo sapiens, UniProt P30968); conditions: Human GnRH receptor; competition with 125I-GnRH-A; Ki calculated from IC50 (Cheng et al.)
T1 construct: expressed in transfected cells; host or cells: HEK 293
T1 sequence (P30968 1-328): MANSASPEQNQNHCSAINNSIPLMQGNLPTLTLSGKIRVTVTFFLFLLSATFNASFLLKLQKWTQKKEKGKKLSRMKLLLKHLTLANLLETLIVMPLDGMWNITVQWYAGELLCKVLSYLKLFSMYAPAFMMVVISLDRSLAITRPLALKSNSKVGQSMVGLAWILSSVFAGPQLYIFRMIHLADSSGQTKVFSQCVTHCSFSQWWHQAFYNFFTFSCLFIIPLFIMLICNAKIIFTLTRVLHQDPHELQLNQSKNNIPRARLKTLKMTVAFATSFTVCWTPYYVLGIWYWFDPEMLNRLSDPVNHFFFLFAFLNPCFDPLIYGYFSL
Method in brief: (§1)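 Membranes from HEK 293 expressing mouse or human receptor, or rat pituitaries, incubated 1 h at RT with ~0.04–0.06 nM ¹²⁵I-[des-Gly¹⁰,D-Ala⁶]GnRH ethylamide and competitor (0.1–10,000 nM) in HEPES pH 7.4 with MgCl2, EDTA, BSA. Filtration onto PEI-soaked GF/C filters, scintillation counting; Ki from IC50 by Cheng–Prusoff.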

mouse GnRH receptors = target: T2, mouse GnRH receptors (Mus musculus, UniProt Q01776); conditions: Mouse GnRH receptor; competition with 125I-GnRH-A; Ki calculated from IC50 (Cheng et al.)
T2 construct: expressed in transfected cells; host or cells: HEK 293
T2 sequence (Q01776 1-327): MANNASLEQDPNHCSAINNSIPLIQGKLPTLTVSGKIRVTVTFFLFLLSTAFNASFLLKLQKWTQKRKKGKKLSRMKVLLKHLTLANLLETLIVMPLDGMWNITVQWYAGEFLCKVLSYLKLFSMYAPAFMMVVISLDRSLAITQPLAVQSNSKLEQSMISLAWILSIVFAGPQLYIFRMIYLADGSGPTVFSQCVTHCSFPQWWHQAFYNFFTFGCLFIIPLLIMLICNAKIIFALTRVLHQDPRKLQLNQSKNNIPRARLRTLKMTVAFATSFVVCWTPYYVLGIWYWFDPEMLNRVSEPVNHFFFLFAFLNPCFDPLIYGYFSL
Method in brief: as §1

rat GnRH receptor = target: T3, rat GnRH receptor (Rattus norvegicus, UniProt P30969); conditions: competition with 125I-GnRH-A, Ki calculated from IC50 (Cheng et al.)
T3 construct: rat pituitaries (Pel Freez Biologicals, Rogers, Ark.) are homogenized in buffer A; tissue Pel Freez Biologicals; host or cells: rat pituitaries
T3 sequence (P30969 1-327): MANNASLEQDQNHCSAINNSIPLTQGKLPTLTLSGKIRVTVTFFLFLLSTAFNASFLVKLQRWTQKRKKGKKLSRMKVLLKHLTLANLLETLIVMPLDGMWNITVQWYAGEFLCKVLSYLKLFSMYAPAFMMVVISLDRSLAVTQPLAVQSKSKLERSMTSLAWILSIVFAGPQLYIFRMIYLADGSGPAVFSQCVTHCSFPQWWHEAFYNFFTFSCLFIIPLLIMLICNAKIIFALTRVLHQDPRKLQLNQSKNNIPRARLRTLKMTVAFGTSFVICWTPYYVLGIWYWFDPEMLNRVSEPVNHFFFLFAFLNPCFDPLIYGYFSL
Method in brief: as §1

| Ki (human GnRH receptors) [nM] | Ki (mouse GnRH receptors) [nM] | Ki (rat GnRH receptor) [nM] | SMILES |
| --- | --- | --- | --- |
| 2.8 | 11 | 17 | Cc1cc2c(cc1Oc1ccc(C(=O)NNc3cc(C)c4c(C)nn(C)c4n3)o1)C(C)(C)CC2 [Example I7, 5-(3,3,6-Trimethyl-indan-5-yloxy)-furan-2-carboxylic acid N′-(1,3,4-trimethyl-1H-pyrazolo[3,4-b]pyridin-6-yl)-hydrazide] |
| 6.3 | 16 | 29 | Cc1cc2c(c(Br)c1Oc1ccc(C(=O)NNc3cc(C)c4c(C)nn(C)c4n3)o1)C(C)(C)CCC2(C)C [Example I8, 5-(1-Bromo-3,5,5,8,8-pentamethyl-5,6,7,8-tetrahydro-naphthalen-2-yloxy)-furan-2-carboxylic acid N′-(1,3,4-trimethyl-1H-pyrazolo[3,4-b]pyridin-6-yl)-hydrazide] |
| 1.2 | 2.1 | 3.8 | Cc1cc2c(c(C)c1Oc1ccc(C(=O)NNc3cc(C)c4c(C)nn(C)c4n3)o1)C(C)(C)CCC2(C)C [Example I9, 5-(1,3,5,5,8,8-Hexamethyl-5,6,7,8-tetrahydro-naphthalen-2-yloxy)-furan-2-carboxylic acid N′-(1,3,4-trimethyl-1H-pyrazolo[3,4-b]pyridin-6-yl)-hydrazide] |
| 146 | 160 | 230 | COc1c(Oc2ccc(C(=O)NNc3cc(C)c4c(C)nn(C)c4n3)o2)c(C)cc2c1C(C)(C)CCC2 [Example I10, 5-(1-Methoxy-3,8,8-trimethyl-5,6,7,8-tetrahydro-naphthalen-2-yloxy)-furan-2-carboxylic acid N′-(1,3,4-trimethyl-1H-pyrazolo[3,4-b]pyridin-6-yl)-hydrazide] |
| 170 | 250 | 790 | Cc1cc2c(c(Br)c1Oc1ccc(C(=O)NNc3cc(C)c4c(C)nn(C)c4n3)o1)C(C)(C)CCC2 [Example I11, 5-(1-Bromo-3,8,8-trimethyl-5,6,7,8-tetrahydro-naphthalen-2-yloxy)-furan-2-carboxylic acid N′-(1,3,4-trimethyl-1H-pyrazolo[3,4-b]pyridin-6-yl)-hydrazide] |
| 4.2 | 5 | 22 | Cc1cc2c(cc1Oc1ccc(C(=O)NNc3cc(C)c4c(C)nn(C)c4n3)o1)C(C)(C)CCC2 [Example I21, N′-(1,3,4-trimethyl-1H-pyrazolo[3,4-b]pyridin-6-y)-5-[(3,8,8-trimethyl-5,6,7,8-tetrahydro-2-naphthalenyl)oxy]-2-furohydrazide] |
| 31 | 38 | 59 | COc1cc2c(c(C)c1Oc1ccc(C(=O)NNc3cc(C)c4c(C)nn(C)c4n3)o1)C(C)(C)CCC2(C)C [Example I25, 5-(3-Methoxy-1,5,5,8,8-pentamethyl-5,6,7,8-tetrahydro-naphthalen-2-yloxy)-furan-2-carboxylic acid N′-(1,3,4-trimethyl-1H-pyrazolo[3,4-b]pyridin-6-yl)-hydrazide] |
| 101 | 122 | 370 | Cc1cc(NNC(=O)c2ccc(Oc3cc4c(cc3Cl)N(C)CCC4(C)C)o2)nc2c1c(C)nn2C [Example I27, 5-(7-Chloro-1,4,4-trimethyl-1,2,3,4-tetrahydro-quinolin-6-yloxy)-furan-2-carboxylic acid N′-(1,3,4-trimethyl-1H-pyrazolo[3,4-b]pyridin-6-yl)-hydrazide] |
| 0.3 | 2.6 | 4.2 | COc1c(Oc2ccc(C(=O)NNc3cc(C)c4c(C)nn(C)c4n3)o2)c(C)cc2c1C(C)(C)CCC2(C)C [Example I28, 5-(1-Methoxy-3,5,5,8,8-pentamethyl-5,6,7,8-tetrahydro-naphthalen-2-yloxy)-furan-2-carboxylic acid N′-(1,3,4-trimethyl-1H-pyrazolo[3,4-b]pyridin-6-yl)-hydrazide] |
| 49 | 58 | 64 | Cc1cc2c(c(O)c1Oc1ccc(C(=O)NNc3cc(C)c4c(C)nn(C)c4n3)o1)C(C)(C)CCC2(C)C [Example I29, 5-(1-Hydroxy-3,5,5,8,8-pentamethyl-5,6,7,8-tetrahydro-naphthalen-2-yloxy)-furan-2-carboxylic acid N′-(1,3,4-trimethyl-1H-pyrazolo[3,4-b]pyridin-6-yl)-hydrazide] |

More lines, now with the values behind:

| SMILES | Ki (human GnRH receptors) [nM] | Ki (mouse GnRH receptors) [nM] | Ki (rat GnRH receptor) [nM] |
| --- | --- | --- | --- |
| Cc1cc(NNC(=O)c2ccc(Oc3cc(C(C)(C)C)c(Br)cc3Br)o2)nc2c1c(C)nn2C [Example I12, 5-(2,4-Dibromo-5-tert-butyl-phenoxy)-furan-2-carboxylic acid N′-(1,3,4-trimethyl-1H-pyrazolo[3,4-b]pyridin-6-yl)-hydrazide] | 165 | 260 | 1160 |
| Cc1ccc(C(C)(C)C)cc1Oc1ccc(C(=O)NNc2ccc3ccccc3n2)o1 [Example I17, 5-(5-tert-Butyl-2-methyl-phenoxy)-furan-2-carboxylic acid N′-quinolin-2-yl-hydrazide] | 70 | 43 | 50 |
| Cc1cc2c(cc1Oc1ccc(C(=O)NNc3cc(C)c4c(C)nn(C)c4n3)o1)C(c1ccccc1)CCC2 (stereo not drawn) [Example I18, 5-(3-Methyl-8-phenyl-5,6,7,8-tetrahydro-naphthalen-2-yloxy)-furan-2-carboxylic acid N′-(1,3,4-trimethyl-1H-pyrazolo[3,4-b]pyridin-6-yl)-hydrazide] | 58 | 59 | 154 |
| Cc1ccc(C(C)(C)C)cc1Oc1ccc(C(=O)NNc2cc(C)c3c(C)nn(C)c3n2)o1 [Example I19, 5-(5-tert-Butyl-2-methyl-phenoxy)-furan-2-carboxylic acid N′-(1,3,4-trimethyl-1H-pyrazolo[3,4-b]pyridin-6-yl)-hydrazide] | 17 | 44 | 39 |
| Cc1cc2c(cc1Oc1ccc(C(=O)NNc3ccc4ccccc4n3)o1)C(C)(C)CC(C)C2(C)C (stereo not drawn) [Example I20, 5-(3,5,5,6,8,8-Hexamethyl-5,6,7,8-tetrahydro-naphthalen-2-yloxy)-furan-2-carboxylic acid N′-quinolin-2-yl-hydrazide] | 3.8 | 4 | 7.3 |
| Cc1cc(Cl)c(C(C)C)cc1Oc1ccc(C(=O)NNc2cc(C)c3c(C)nn(C)c3n2)o1 [Example I23, 5-(4-Chloro-5-isopropyl-2-methyl-phenoxy)-furan-2-carboxylic acid N′-(1,3,4-trimethyl-1H-pyrazolo[3,4-b]pyridin-6-yl)-hydrazide] | 30 | 22 | 370 |
| Cc1cc(NNC(=O)c2ccc(Oc3cc4c(cc3Cl)NCCC4(C)C)o2)nc2c1c(C)nn2C [Example I26, 5-(7-Chloro-4,4-dimethyl-1,2,3,4-tetrahydro-quinolin-6-yloxy)-furan-2-carboxylic acid N′-(1,3,4-trimethyl-1H-pyrazolo[3,4-b]pyridin-6-yl)-hydrazide] | 8.3 | 14 | 25 |
| Cc1cc(C)c(C)c(Cc2ccc(C(=O)NNc3cc(C)c4c(C)nn(C)c4n3)o2)c1C [Example J12, 5-(2,3,5,6-Tetramethylbenzyl)-N′-(1,3,4-trimethyl-1H-pyrazolo[3,4-b]pyridin-6-yl)-2-furohydrazide] | 260 | 850 | 1200 |
| Cc1cc2c(cc1Cc1ccc(C(=O)NNc3cc(C)c4c(C)nn(C)c4n3)o1)C(C)(C)CC2(C)C [Example J15, 5-[(1,1,3,3,6-pentamethyl-2,3-dihydro-1H-inden-5-yl)methyl]-N-(1,3,4-trimethyl-1H-pyrazdo[3,4-b]Pyridin-6-yl)-2-furohydrazide] | 0.9 | 3.3 | 2 |
| Cc1ccc(C2CCCCC2)cc1Cc1ccc(C(=O)NNc2cc(C)c3c(C)nn(C)c3n2)o1 [Example J16, 5-(5-cyclohexyl-2-methylbenzyl)-N′-(1,3,4-trimethyl-1H-pyrazolo[3,4-b]pyridin-6-yl)-2-furohydrazide] | 97 | 233 | 122 |
